Reference: patent US20240287046A1, “COMPOUNDS AND RADIOLIGANDS FOR TARGETING NEUROTENSIN RECEPTOR AND USES THEREOF” (Full-Life Technologies HK Limited, priority 2022, published 2024)

Legend:
[1] = tested on: ASPC-1 tumor-bearing mice; assay: SPECT/CT imaging of ^177Lu-labeled complexes; type: in vivo; details: over 72 hours
Experimental: ASPC-1 tumor-bearing mice were IV-injected with about 120 μCi of ^177Lu-labeled complexes, then anesthetized under 2% isoflurane/oxygen gas and placed on the scanner. SPECT/CT images were acquired in three bed positions for 30 min using a MILabs SPECT scanner. Whole-body SPECT images were acquired at 1 h, 4 h, 24 and 72 h after injecting the radiotracers.

[2] = tested on: HT-29 tumor-bearing mice; assay: Biodistribution of radionuclide labeled complexes in HT-29 tumor-bearing mice; type: in vivo, BALB/c nude mice
Experimental: The BALB/c nude mice (Charles River, Beijing) were utilized to establish the xenografted model for biodistribution study. All animal care and experimental procedure were performed by following the animal protocols approved by the ethics committee of China Institute of Radiation Protection.
Briefly, each mouse was inoculated with approximately 4×10^6 ASPC-1 cells (human pancreatic cancer cell line) or HT-29 cells (human colorectal adenocarcinoma cell line) expressing human NTSR-1 by subcutaneous injection at rear flank. After inoculation, the xenografted tumors were allowed to grow for ˜2-4 weeks till the tumor weight reached to about 0.05 to 0.50 g (0.20 g in average).
Biodistribution studies were performed by administrating the radionuclide labeled test compound at a dose of ˜30-50 μCi (100 μL in 0.9% NaCl, ˜1.11-1.85 MBq, with specific activity 30-250 μCi/nmol) to each animal through tail vein injection.
At different time points after the administration, the mice treated with each compound were euthanized. The tissues and organs of the animals in each group were collected, excised, weighed, and analyzed in a PerkinElmer 2480 WIZARD2γ counter, and the percent injected dose (% ID) and % ID/g of each organ or tissue were calculated.

clearance from other organs or tissues (SPECT/CT) [1]: rapid clearance | retention in tumors (SPECT/CT) [1]: sustained retention in tumors | % ID/g (1 h) Blood ([2]; Blood, 1 h): 16.51 ± 0.56 % ID/g | % ID/g (4 h) Blood ([2]; Blood, 4 h): 2.85 ± 1.23 % ID/g | % ID/g (24 h) Blood ([2]; Blood, 24 h): 0.06 ± 0.02 % ID/g | % ID/g (72 h) Blood ([2]; Blood, 72 h): 0.03 ± 0 % ID/g | % ID/g (120 h) Blood ([2]; Blood, 120 h): 0.01 ± 0 % ID/g | % ID/g (1 h) Femur ([2]; Femur, 1 h): 1.95 ± 1.15 % ID/g | % ID/g (4 h) Femur ([2]; Femur, 4 h): 0.56 ± 0.23 % ID/g | % ID/g (24 h) Femur ([2]; Femur, 24 h): 0.11 ± 0.02 % ID/g | % ID/g (72 h) Femur ([2]; Femur, 72 h): 0.06 ± 0.03 % ID/g | % ID/g (120 h) Femur ([2]; Femur, 120 h): 0.07 ± 0.02 % ID/g | % ID/g (1 h) Heart ([2]; Heart, 1 h): 5.28 ± 0.74 % ID/g | % ID/g (4 h) Heart ([2]; Heart, 4 h): 1.31 ± 0.53 % ID/g | % ID/g (24 h) Heart ([2]; Heart, 24 h): 0.16 ± 0.01 % ID/g | % ID/g (72 h) Heart ([2]; Heart, 72 h): 0.11 ± 0.01 % ID/g | % ID/g (120 h) Heart ([2]; Heart, 120 h): 0.05 ± 0.03 % ID/g | % ID/g (1 h) Intestine ([2]; Intestine, 1 h): 2.84 ± 1.07 % ID/g | % ID/g (4 h) Intestine ([2]; Intestine, 4 h): 1.71 ± 0.23 % ID/g | % ID/g (24 h) Intestine ([2]; Intestine, 24 h): 0.66 ± 0.29 % ID/g | % ID/g (72 h) Intestine ([2]; Intestine, 72 h): 0.29 ± 0.23 % ID/g | % ID/g (120 h) Intestine ([2]; Intestine, 120 h): 0.19 ± 0.01 % ID/g | % ID/g (1 h) Kidney ([2]; Kidney, 1 h): 4.41 ± 2.41 % ID/g | % ID/g (4 h) Kidney ([2]; Kidney, 4 h): 1.73 ± 0.79 % ID/g | % ID/g (24 h) Kidney ([2]; Kidney, 24 h): 1.43 ± 1.04 % ID/g | % ID/g (72 h) Kidney ([2]; Kidney, 72 h): 0.7 ± 0.3 % ID/g | % ID/g (120 h) Kidney ([2]; Kidney, 120 h): 0.4 ± 0.15 % ID/g | % ID/g (1 h) Liver ([2]; Liver, 1 h): 4.35 ± 1.78 % ID/g | % ID/g (4 h) Liver ([2]; Liver, 4 h): 2.59 ± 1.08 % ID/g | % ID/g (24 h) Liver ([2]; Liver, 24 h): 0.85 ± 0.38 % ID/g | % ID/g (72 h) Liver ([2]; Liver, 72 h): 0.57 ± 0.21 % ID/g | % ID/g (120 h) Liver ([2]; Liver, 120 h): 0.24 ± 0.04 % ID/g | % ID/g (1 h) Lung ([2]; Lung, 1 h): 4.47 ± 3.31 % ID/g | % ID/g (4 h) Lung ([2]; Lung, 4 h): 1.81 ± 0.77 % ID/g | % ID/g (24 h) Lung ([2]; Lung, 24 h): 0.35 ± 0.14 % ID/g | % ID/g (72 h) Lung ([2]; Lung, 72 h): 0.23 ± 0.01 % ID/g | % ID/g (120 h) Lung ([2]; Lung, 120 h): 0.07 ± 0.02 % ID/g | % ID/g (1 h) Muscle ([2]; Muscle, 1 h): 2.2 ± 1.08 % ID/g | % ID/g (4 h) Muscle ([2]; Muscle, 4 h): 0.44 ± 0.26 % ID/g | % ID/g (24 h) Muscle ([2]; Muscle, 24 h): 0.05 ± 0.03 % ID/g | % ID/g (72 h) Muscle ([2]; Muscle, 72 h): 0.03 ± 0.01 % ID/g | % ID/g (120 h) Muscle ([2]; Muscle, 120 h): 0.04 ± 0.02 % ID/g | % ID/g (1 h) Pancreas ([2]; Pancreas, 1 h): 1.48 ± 0.29 % ID/g | % ID/g (4 h) Pancreas ([2]; Pancreas, 4 h): 0.38 ± 0.17 % ID/g | % ID/g (24 h) Pancreas ([2]; Pancreas, 24 h): 0.07 ± 0.04 % ID/g | % ID/g (72 h) Pancreas ([2]; Pancreas, 72 h): 0.03 ± 0.01 % ID/g | % ID/g (120 h) Pancreas ([2]; Pancreas, 120 h): 0.04 ± 0.01 % ID/g | % ID/g (1 h) Spleen ([2]; Spleen, 1 h): 1.73 ± 1.08 % ID/g | % ID/g (4 h) Spleen ([2]; Spleen, 4 h): 0.71 ± 0.41 % ID/g | % ID/g (24 h) Spleen ([2]; Spleen, 24 h): 0.14 ± 0.03 % ID/g | % ID/g (72 h) Spleen ([2]; Spleen, 72 h): 0.08 ± 0.01 % ID/g | % ID/g (120 h) Spleen ([2]; Spleen, 120 h): 0.1 ± 0.04 % ID/g | % ID/g (1 h) Stomach ([2]; Stomach, 1 h): 2.58 ± 1.00 % ID/g | % ID/g (4 h) Stomach ([2]; Stomach, 4 h): 0.76 ± 0.38 % ID/g | % ID/g (24 h) Stomach ([2]; Stomach, 24 h): 0.14 ± 0.03 % ID/g | % ID/g (72 h) Stomach ([2]; Stomach, 72 h): 0.06 ± 0.01 % ID/g
Structure (SMILES): COc1cccc(OC)c1-c1cc(C(=O)NC2(C(=O)O)C3CC4CC(C3)CC2C4)nn1-c1ccc(OCCCN(C)CCCN(C)C(=O)CN2CCN(CC(=O)[O-])CCN(CC(=O)[O-])CCN(CC(=O)[O-])CC2)cc1C(C)C.[177Lu+3] (centres unmarked) [^177Lu-I-7]
